Data: PMC3115942 (PLoS ONE, 2011)

Columns and labels:
[1] = tested on: GLI1 mRNA in PANC-1 cells; experiment: Real time PCR of GLI1 mRNA in PANC-1; assay type: cell-based, human; details: 5 µM, 48 hrs
Description: (§1) Cells were lysed for RNA extraction after 48 or 72 hours of treatment. Total RNA from cultured cells or tumor tissue was isolated using the GeneElute miniprep kit (Sigma-Aldritch) following the manufacturer^'s instructions. cDNA was synthesized from the isolated mRNA using the Retroscript kit (Ambion), and real-time PCR was carried out using the SYBR Green PCR master mix (Stratagene) according to the manufacturer^'s instructions with an Mx3000P cycler (Stratagene). The relative concentrations of cDNA present in each sample were calculated by the MxPro software (Stratagene), normalized for GAPDH (mRNA from cells) or GUS (mRNA from tumors). For real time PCR primer sequences see Table 6. For the tumor tissue real time PCR, previously described human and mouse specific primers against GUSB, PTCH1 and GLI1were used.

PANC-1 cells = experiment: Passage growth assay, PANC-1; assay type: cell-based, human; details: 5 µM, passages of 5–7 days
Description: (§2) 20,000 cells were seeded per well in 6 well plates (triplicates) with DMSO or 5 µM MS-0022. Treatment medium was changed on day 3–5, and after 5–7 days the cells were trypsinized, re-suspended in medium and counted, before reseeding cells at 20,000/well for a subsequent passage. The average growth of MS-0022 treated cells was calculated as a percentage of the growth of the DMSO control at the end of each passage. Graphs display average of percent growth with standard deviation bars (n = 3).

[2] = tested on: PANC-1, SUIT-2, PC-3 and FEMX cells; experiment: In vitro antiproliferative assay (MTS), tumor cell lines; assay type: cell-based, human; details: 10 µM, 4 day exposure; across PANC-1, SUIT-2, PC-3 and FEMX
Description: (§3) Cells were plated at a density of 3000 (THLE-2 and PC-3) and 1000 (PANC-1, SUIT-2 and FEMX) cells per well (on the basis of their growth rate) in 200 µl of medium in a 96-well plate. Medium was changed daily, and after four days, the assay was read using a MTS kit (Promega) according to the instructions of the manufacturer. Graphs display average of percent growth with standard deviation (n = 8).

[3] = tested on: Gli1 mRNA expression in Ptch−/− MEF; experiment: Real time PCR of Gli1 mRNA in Ptch−/− MEF; assay type: cell-based, mouse; details: 5 µM, 48 hours
Description: as §1

p70S6K(h) = molecular target: T1, p70S6K(h) (Homo sapiens, UniProt P23443); experiment: Millipore kinaseprofiler diversity array; assay type: biochemical; details: 10 µM MS-0022
T1 construct: purchased Millipore (Upstate) KinaseProfiler
T1 sequence (P23443 whole entry): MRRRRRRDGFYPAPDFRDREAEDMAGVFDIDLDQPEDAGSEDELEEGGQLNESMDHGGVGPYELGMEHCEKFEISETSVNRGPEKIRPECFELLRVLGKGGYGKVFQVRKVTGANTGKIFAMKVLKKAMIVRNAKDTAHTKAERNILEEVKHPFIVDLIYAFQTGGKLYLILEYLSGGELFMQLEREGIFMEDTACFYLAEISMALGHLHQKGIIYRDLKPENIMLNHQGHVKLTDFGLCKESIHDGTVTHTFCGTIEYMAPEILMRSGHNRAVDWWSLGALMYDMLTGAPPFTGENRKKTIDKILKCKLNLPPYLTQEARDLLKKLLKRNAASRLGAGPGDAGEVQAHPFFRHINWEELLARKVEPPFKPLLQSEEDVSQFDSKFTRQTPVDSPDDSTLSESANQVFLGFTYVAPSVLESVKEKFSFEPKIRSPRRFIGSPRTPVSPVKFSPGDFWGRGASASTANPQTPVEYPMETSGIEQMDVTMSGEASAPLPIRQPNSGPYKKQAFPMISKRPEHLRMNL
Description: (§4) Table 4 Kinase activity in presence of 10 µM MS-0022 in a kinaseprofiler diversity array. | column: Activity %

IGF-1R(h) = molecular target: T2, IGF-1R(h) (Homo sapiens, UniProt P08069); experiment: Millipore kinaseprofiler diversity array; assay type: biochemical; details: 10 µM MS-0022
T2 construct: purchased Millipore (Upstate) KinaseProfiler
T2 sequence (P08069 31-1367): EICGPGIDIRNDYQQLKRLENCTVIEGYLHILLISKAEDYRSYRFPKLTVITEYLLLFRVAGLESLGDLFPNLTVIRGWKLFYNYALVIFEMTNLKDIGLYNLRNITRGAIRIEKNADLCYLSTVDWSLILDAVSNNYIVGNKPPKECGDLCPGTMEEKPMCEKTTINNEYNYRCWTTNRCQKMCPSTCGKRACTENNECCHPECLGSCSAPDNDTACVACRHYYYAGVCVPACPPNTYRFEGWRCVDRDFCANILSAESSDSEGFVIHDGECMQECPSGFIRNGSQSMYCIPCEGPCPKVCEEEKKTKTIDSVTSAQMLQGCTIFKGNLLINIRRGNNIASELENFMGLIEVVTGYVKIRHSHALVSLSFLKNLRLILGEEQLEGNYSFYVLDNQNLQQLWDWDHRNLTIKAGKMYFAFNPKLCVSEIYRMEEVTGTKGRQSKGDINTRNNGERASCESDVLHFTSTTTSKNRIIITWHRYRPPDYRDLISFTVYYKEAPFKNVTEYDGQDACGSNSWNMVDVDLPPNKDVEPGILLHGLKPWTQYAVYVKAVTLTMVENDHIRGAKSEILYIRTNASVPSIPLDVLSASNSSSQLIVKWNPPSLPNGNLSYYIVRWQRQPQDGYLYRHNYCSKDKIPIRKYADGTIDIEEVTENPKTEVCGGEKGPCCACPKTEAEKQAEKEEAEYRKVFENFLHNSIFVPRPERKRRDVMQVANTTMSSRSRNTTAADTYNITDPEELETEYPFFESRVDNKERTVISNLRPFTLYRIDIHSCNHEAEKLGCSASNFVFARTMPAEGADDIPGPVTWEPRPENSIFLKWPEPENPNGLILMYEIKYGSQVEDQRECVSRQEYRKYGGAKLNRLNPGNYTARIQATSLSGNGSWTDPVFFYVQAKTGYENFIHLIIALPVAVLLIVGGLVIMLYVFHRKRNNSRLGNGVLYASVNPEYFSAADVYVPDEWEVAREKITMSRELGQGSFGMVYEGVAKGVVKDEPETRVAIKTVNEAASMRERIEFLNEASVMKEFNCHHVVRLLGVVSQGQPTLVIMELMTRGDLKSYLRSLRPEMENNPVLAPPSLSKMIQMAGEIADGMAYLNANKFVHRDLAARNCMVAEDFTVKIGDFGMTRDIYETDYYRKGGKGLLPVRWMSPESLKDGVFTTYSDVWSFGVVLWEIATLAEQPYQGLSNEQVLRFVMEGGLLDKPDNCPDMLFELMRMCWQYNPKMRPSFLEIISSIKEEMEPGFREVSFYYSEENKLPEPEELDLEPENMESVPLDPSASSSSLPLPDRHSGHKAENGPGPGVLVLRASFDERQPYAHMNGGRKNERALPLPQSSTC
Description: as §4

SUIT-2 cells [4] = experiment: Passage growth assay, SUIT-2; assay type: cell-based, human; details: 5 µM, passage 2 and 3
Description: as §2

SUIT-2 cells [5] = experiment: In vitro antiproliferative assay (MTS), SUIT-2; assay type: cell-based, human; details: 4 day
Description: as §3

[6] = tested on: Gli1 or Gli2 (GliBS-Luc, NIH3T3 cells); experiment: GliBS-Luc reporter in NIH3T3 cells with forced Gli1 or Gli2 expression; assay type: cell-based; details: 10 µM, 48 hours
Description: (§5) Vectors were obtained from the following: GliBS-Luc reporter (gift from H. Sasaki), pBluescript (pBS) (Stratagene), FL-HA-GLI1 (Gli1) and Gli2-GFP (Gli2) (gifts from R. Toftgård), Super8XTOPFlash, and NFkB-luc (Panomics). 10 ng renilla luciferase (pRL-TK) (Promega) was used as a transfection control. HEK293 and NIH3T3 cells were seeded at 80,000 per well in 48-well plates on day 1, and were co-transfected on day 2 using a total of 0.4 µg plasmid per well mixed at 1∶3 in FUGENE6 according to manufacturer^'s instructions. On day 3, control medium and activating medium (50% L1 conditioned medium, 50% Shh conditioned medium or medium containing 10 ng/mL recombinant rcrTNF-α (R&D Systems)) +/− 10–20 µM MS-0022 were added, using DMSO as a control (the NFkB pathway inhibitor Bay11-7082 was used as a control in the NFkB assay). Samples were analyzed on day 4 or 5 using the Dual Luciferase assay kit according to manufacturer^'s instructions. Graphs display relative or fold reporter activity, and are calculated from a mean ratio of firefly reporter luminescence/pRL-TK luminescence with standard deviation error bars (n = 3). The experiments have been repeated with similar results.

[7] = tested on: ciliary accumulation of Smo in Ptch−/− MEF; experiment: Immunostaining of Smo in primary cilia of Ptch−/− MEF; assay type: cell-based, mouse; details: 5 µM, 24 hours
Description: PTCH−/− MEF were seeded on pre-coated glass slides (1 hour coating with 0.1% Gelatin (G1393) and 0.003% Collagen (C8919) (Sigma-Aldrich) in PBS). 80% confluent cells were switched from 10% to 0.5% FBS in medium and cells were treated with DMSO or 5 µM MS-0022 for 24 hours in (n = 3) before subsequent immunofluorescent staining: Slides were fixed with 4% paraformaldehyde (Sigma-Aldrich), permeabilized for 10 min in 0.1% v/v Triton X-100 (Sigma-Aldrich) in PBS (PBT), and blocked with 10% w/v BSA (Saveen Werner) in PBT for 1 hour. Primary antibodies, mouse anti-acetylated tubulin (a-Tub) (Sigma-Aldrich (T7451), 1∶1000) goat anti-Smo (Santa Cruz Biotechnology (sc-6367), 1∶1000), and goat anti-GLI-1 (RnD systems (AF3455), 1∶500) were diluted in 0.5% w/v BSA in PBT and left on the slides over night at 4°C. Secondary antibodies donkey anti-goat IgG-Alexa 594 and donkey anti-mouse IgG-Alexa 488 (Invitrogen, both at 1∶500) were added in 0.5% w/v BSA in PBT for 1 hour. The slides were counterstained with DAPI (Roche, 1 mg/ml) in PBS. 3 random regions were imaged pr slide using a confocal LSM510 microscope (Carl Zeiss MicroImaging). The ratio of […] positive cilia was quantified manually or processed and analyzed using ImageJ to quantify the intensity of Smo and aTub for each cilium in the images (http://rsb.info.nih.goc/ij/). […]

[8] = tested on: Wnt signaling in HEK293 cells; experiment: Wnt luciferase reporter assay (SuperTop-luc) in HEK293; assay type: cell-based; details: HEK293, 10 and 20 µM, 24 hours
Description: as §5

PC-3 cells = experiment: Passage growth assay, PC-3; assay type: cell-based, human; details: 5 µM, passages of 5–7 days
Description: as §2

SMILES: Cc1cccn2cc(-c3ccc(NC(=O)c4ccccc4Br)cc3)nc12 [MS-0022, 2-bromo-N-(4-(8-methylimidazo[1,2-a]pyridin-2-yl)phenyl)benzamide]
- GLI1 mRNA levels, PANC-1 [1]: without reducing GLI1 mRNA levels
- growth reduction after passage 2, PANC-1 (PANC-1 cells): 80%
- growth reduction (MTS) [2]: 40%–70%
- Gli1 mRNA expression in Ptch−/− MEFs [3]: reduced Gli1 mRNA expression
- activity at 10 µM (p70S6K(h)): 94%
- activity at 10 µM (IGF-1R(h)): 105%
- serial passage growth reduction, SUIT-2 (SUIT-2 cells [4]): not significant
- growth (MTS), SUIT-2 (SUIT-2 cells [5]): only MS-0022 reduced growth
- inhibition of Gli1 or Gli2 when pathway further activated by Shh ([6]; 50% Shh conditioned medium): partial inhibition
- Hh pathway inhibitory effect at the level of forced Gli1 or Gli2 expression ([6]; without Shh): not detected
- ciliary accumulation of Smo [7]: effectively blocked ciliary accumulation of Smo
- L1 medium induced Wnt signaling [8]: did not significantly block
- growth reduction after passage 2, PC-3 (PC-3 cells): 80%
